# Experimental data from US20190083449A1, “COMBINATION THERAPY WITH AN ANTI-HYALURONAN AGENT AND THERAPEUTIC AGENT” (Halozyme, Inc., priority 2012, published 2019).
# How the values were obtained:
# B16 melanoma model = conditions: oral administration at 600 mg/kg/d; cited from earlier work
# [1] = route (IV or PO); cited from earlier work
# cytidine deaminase = target: T1, cytidine deaminase (Homo sapiens, UniProt P32320); conditions: cited from earlier work; for Km: enzyme purified from human liver
# T1 construct: for the enzyme purified from human liver; from tissue; host or cells: human liver
# T1 sequence (P32320 whole entry): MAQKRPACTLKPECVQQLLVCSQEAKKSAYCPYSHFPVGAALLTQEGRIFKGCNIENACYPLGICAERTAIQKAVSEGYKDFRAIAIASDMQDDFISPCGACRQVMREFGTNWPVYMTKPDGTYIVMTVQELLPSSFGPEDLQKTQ
# [2] = system: carbohydrate antigen 19-9 (CA19-9); assay: Serum CA19-9 tumor biomarker ELISA in BxPC3 xenograft model; assay type: in vivo, mouse; conditions: day 20 of first dosing cycle
# Procedure: (§1) Biomarkers carbohydrate antigen 19-9 (CA19-9) and carcinoembryonic antigen (CEA) associated with pancreatic cancer were tested to measure therapeutic response. Animals were treated as described in part A. Serum was collected from satellite animals (n≤3) from each group on day 0, 6, 13 and 20 of the first dosing cycle. Human CA19-9 was measured using a CA 19-9 ELISA kit (Catalog No. CA199T, Calbiotech, Spring Valley, Calif.) and CEA tumor antigen was measured using a CEA ELISA kit (Catalog No. CE062T, Calbiotech, Spring Valley, Calif.).
# [3] = rapid deamination by deoxycytidine deaminase to dFdU; cited from earlier work
# [4] = system: carcinoembryonic antigen (CEA); assay: Serum CEA tumor biomarker ELISA in BxPC3 xenograft model; assay type: in vivo, mouse; conditions: day 20 of first dosing cycle
# Procedure: as §1
# [5] = system: BxPC3 pancreatic cancer cell line; assay: Median survival time to endpoint in BxPC3 xenograft model; assay type: in vivo, mouse; conditions: three four-week dosing cycles; PEGPH20 4.5 mg/mL, nab-paclitaxel 10 mg/kg, gemcitabine 180 mg/kg; endpoint tumor >2000 mm^3, >20% bodyweight loss, duress or death
# Procedure: Following the first four week dosing cycle as set forth in part A, the dosing cycle was repeated two times and time to survival endpoint was followed over time. Briefly, in each dosing cycle, animals were treated with vehicle or PEGPH20 (4.5 mg/mL) with or without nab-paclitaxel (10 mg/kg) intravenously twice a week for four weeks. In each cycle, groups receiving gemcitabine were administered gemcitabine (180 mg/kg) 24 hours after PEGPH20 and/or nab-paclitaxel every 7 days for three weeks of the dose cycle. Time to survival endpoint, a surrogate of animal survival, was defined as (a) time to tumor volume of greater than 2000 mm^3, (b) time to a greater than 20% bodyweight loss, or (c) time to animal duress or death.
# pancreatic cancer = conditions: cited from earlier work
# [6] = system: BxPC3 pancreatic cancer cell line; assay: Tumor growth inhibition in BxPC3 xenograft model, PEGPH20, nab-paclitaxel and/or gemcitabine; assay type: in vivo, mouse
# Procedure: The human pancreatic cancer xenograft model described in Example 1 was used to evaluate the antitumor effects of PEGPH20 and nab-paclitaxel combination therapy in further combination with gemcitabine treatment. Prior to performing the study, a route and dose level for gemcitabine was selected based. […] The results are depicted in FIG. 2. […] Gemcitabine was administered intraperitoneally 24 hours after PEGPH20 and/or nab-paclitaxel every 7 days for three weeks of the dose cycle. […] The results are depicted in FIG. 3. […] Table 6 depicts the results as the percentage growth inhibition relative to vehicle as determined from tumor volume measurements at day 26.
smiles,measurement,setting,value
"Cc1cc(=O)oc2cc(O)ccc12 [4-MU, 7-hydroxy-4-methylcoumarin]",reduction of metastases,B16 melanoma model,64%
C[C@]12CCC(=O)C=C1CC[C@@H]1[C@@H]2[C@@H](O)C[C@@]2(C)[C@H]1CC[C@]2(O)C(=O)CO [Hydrocortisone],Equivalent Potency,[1],20 mg
C[C@H]1C[C@@H]2[C@H]([C@@H](O)C[C@@]3(C)[C@H]2CC[C@]3(O)C(=O)COC(=O)CCC(=O)O)[C@@]2(C)C=CC(=O)C=C12 [Methylprednisolone sodium succinate],Equivalent Potency,[1],4 mg
C[C@]12C=CC(=O)C=C1CC[C@@H]1[C@@H]2[C@@H](O)C[C@@]2(C)[C@H]1CC[C@]2(O)C(=O)CO [Prednisolone],Equivalent Potency,[1],5 mg
"Nc1ncn([C@H]2C[C@H](O)[C@@H](CO)O2)c(=O)n1 [decitabine, 5-aza-2′-deoxycytidine]",Km,cytidine deaminase,250 µM
Nc1ccn([C@H]2C[C@H](O)[C@@H](CO)O2)c(=O)n1 [deoxycytidine],rate of deamination relative to decitabine,cytidine deaminase; at equal concentrations,about 6 fold
same,Km,cytidine deaminase,12 µM
"Nc1ccn([C@@H]2O[C@H](CO)[C@@H](O)C2(F)F)c(=O)n1 [gemcitabine, 2′-deoxy-2′,2′-difluorocytidine]",level of CA19-9 marker in serum,[2],approximately similar to vehicle only control
same,half-life in plasma,[3],approximately 10 minutes
same,level of CEA marker in serum,[4],approximately 15 ng/mL
same,Median Survival Time,[5],38 days
same,survival compared to patients who had surgery alone,pancreatic cancer; adjuvant setting,increased survival by two months
same,median survival,pancreatic cancer; gemcitabine monotherapy,over 5 months
same,Tumor Growth Inhibition (% of vehicle control),"[6]; day 26, PEGPH20 4.5 mg/kg i.v. 2x/wk, nab-paclitaxel 10 mg/kg i.v. 2x/wk, gemcitabine 180 mg/kg i.p. weekly",25%
same,antitumor activity (in words),"[6]; four week dose cycle, FIG. 3",some antitumor activity
same,tumor growth compared to vehicle only (in words),"[6]; gemcitabine 60, 120, 180 and 240 mg/kg once a week (day 0, 7, 14, 21)",inhibited tumor growth at all doses tested
